Measured values taken from US20190321496A1, “AGENTS AND METHODS FOR THE DIAGNOSIS AND TREATMENT OF DISEASES ASSOCIATED WITH EXTRACELLULAR MATRIX TURNOVER” (Baker IDI Heart and Diabetes Institute Holdings Limited, priority 2016, published 2019).

Key:
MMP14 = test: Assay of MMP14 activity (FRET peptide) in HT1080 cells treated with Naphthofluorescein; format: cell-based, human; settings: n=3, untreated cells 473.7±20.93
Method: Detection of Cy 3.5 signals of the MMP14 FRET peptide was performed using the FLUOstar OPTIMA BMG LABTECH 96 microplate fluorescence reader standardized for optic settings of excitation 544 nm and emission 590 nm, temperature settings at 37° C., with readings taken every 10 minutes over a 120 minute duration and double orbital shaking at a width of 4 mm 1 second prior to each cycle. All confocal live cell studies were performed using the Nikon Air inverted microscope (Tokyo, Japan) with live cell imaging chamber (designed by Monash Micro imaging). Tissue sections were obtained by cryo-sectioning frozen tissue using the Leica CM1950 cryostat (Leica Microsystems, Germany).
A peptide sequence that is preferentially cleaved by MMP14 was used to create a FRET probe with N terminal Cy3.5 and C terminal BHQ (Black Hole Quencher): Cy3.5 SGRIGFLRTACBHQ2 (SEQ ID NO:13). The presence of MMP14 activity cleaves this peptide and separates the Cy3.5 from BHQ. […] The cells were centrifuged at 4000 rcf for 5 minutes, cell pellet was resuspended in PBS containing calcium and magnesium and counted using a haemocytometer. […] The 96 well microplate was incubated at 37° C. inside the FluorSTAR Optima fluorescent microplate reader for 2 hours while Cy 3.5 signal readings in the (Ex544, Em590) channel were taken every 10 minutes. […] The readings were plotted as bar charts in Prism software. […]

unstable plaques = test: In vivo treatment of tandem stenosis mice, plaque collagen quantification (Picrosirius Red); design: species or system mouse; settings: tandem stenosis ApoE knock out mice, 2 tail vein injections 2 weeks apart, killed 2 weeks after second dose, PBS 14.40±4.522
Method: As described elsewhere herein, at 12 weeks of age and 6 weeks after commencement of high fat diet, ApoE−/− mice (C57BL/6J background) were anaesthetized by intraperitoneal injection of a mixture of ketamine (100 mg/kg) and xylazine (10 mg/kg). An incision was made in the neck and the right common carotid artery exposed by dissecting away circumferential connective tissue. A tandem stenosis with 150 μm outer diameter was introduced with the distal stenosis placed 1 mm from the carotid artery bifurcation and the proximal stenosis 3 mm from the distal stenosis. A 6-0 blue braided polyester fibre suture was tied around the carotid artery and a 150 μm needle to achieve the stenosis diameter of 150 μm and the needle was subsequently removed after the suture was secured. The incision wound was sutured close and the mice resumed their high fat diet. […]
Collagen quantification of the Picrosirius Red slides were performed using Image J software (National Institute of Health USA). […] For each section, the quantity of plaque collagen is expressed as the percentage of collagen within the plaque: […]
All quantitative data was analysed by PRISM 6 (GraphPad Software Inc.) and reported as mean +/− one standard deviation. […] Unpaired t test with Welch's correction was also used to analyse the collagen quantification data for the mouse in vivo treatment experiments. […]

With `O=C1OC2(c3ccccc31)c1ccc3cc(O)ccc3c1Oc1c2ccc2cc(O)ccc12` [Naphthofluorescein] the “Cy3.5 increase (MMP14 FRET peptide)” value (MMP14; HT1080 cells treated with 20 μM unaltered free Naphthofluorescein for 1 week, time zero to 120 minutes) was 125.0±17.04, the “Cy3.5 increase (MMP14 FRET peptide), pH 5 rendered drug” value (MMP14; HT1080 cells, Naphthofluorescein pre-treated in HCl solution at pH 5 for 30 minutes then neutralised with NaOH) was 126.7±2.728 and the “collagen percentage of the plaque area” value (unstable plaques) was 18.87+5.308 percentage of the plaque area.
